{"source": "patent US20060276537A1", "about": "“Use of ladostigil for the treatment of multiple sclerosis” (priority 2005, published 2006)", "type_in_all_cases": "in vivo", "key": {"[1]": {"experiment": "Body weight of the EAE mice (Table 7)", "from_the_text": "These differences were statistically significant (p<0.000, Manova). According to the subsequent Post Hoc comparison (LSD), all the groups were different from the control (Table 7). […] On day 14, four days after the onset of the disease, sick mice lost an average of 2 g of weight. The average mean weight of GA-blocked mice was reduced by only 0.4 g. On day 23 the control group reached the lowest weight, 14.6 g."}, "[2]": {"tested_on": "relapsing remitting EAE in 129/SvEv mice", "experiment": "MOG-induced relapsing remitting EAE in 129/SvEv mice", "procedure": "This experiment is conducted to evaluate whether ladostigil tartrate is effective in alleviating EAE. EAE is induced in mice by the administration of myelin oligodendrocyte glycoprotein (MOG). Injection of MOG into 129/SvEv mice produces a relapsing remitting EAE (murine model of relapsing remitting multiple sclerosis).\nOne week before MOG immunization, 129/SvEv mice receive a sub-optimal dose of ladostigil tartrate or saline vehicle. Over a period of 1-2 months following MOG immunization, clinical scores are monitored by weighing animals on a daily basis and grading the severity of EAE. In addition to clinical evaluation, groups of mice are sacrificed at weekly intervals for routine histological examination (hematoxylin-eosin and luxol fast blue for evidence of inflammation and demyelination, respectively). Also, cellular infiltrates are examined for CD3 (T lymphocytes), CD56 (natural killer cells) and CD19 (B cell immunohistochemistry). Loss of neurons and oligodendrocytes is assessed using immunohistochemistry for NeuN and glutathione-S-transferase pi isoform, respectively. Furthermore, axonal integrity is examined using immunohistochemistry for β-amyloid precursor protein or neurofilament, and by Bielchowsky silver stains. The neuropathological assessments are focused on the optic nerve, lumbar/sacral cord and brain stem."}, "[3]": {"tested_on": "acetylcholinesterase (AChE)", "experiment": "Cholinesterase assay (modified Ellman, ATC substrate) in brain and blood of treated EAE mice", "settings": "for Blood AChE U/ml / Blood AchE % inhibition: blood of EAE mice; for Brain AChE U/g (Total ChE) / Brain AchE % inhibition: brain of EAE mice", "procedure": "From the mice of Example 2, acetylcholinesterase (AChE) and butyrylcholinesterase (BChE) activities were determined by a modification of Ellman's spectophotometric method using acetyltiocholine (ATC) and butyryltiocholine (BTC) as substrates.\nHomogenate of 100 mg brain tissue in 1 ml 100 mM phosphate buffer pH=8.0 was prepared. 0.4 ml of crude homogenate was added to 1.2 ml pre-warmed 4 mM 5,5′-Dithiobis(2-nitrobenzoic acid) (DTNB or Ellman's reagant); 30 μl from this mixture were added to 210 μl pre-warmed (28° C.) 50 mM phosphate buffer in a microplate; and the reaction was started by addition of 10 μl ATC or BTC (final concentration=1 mM) or water (for the blank reaction) The increase in optical density (OD) at 412 nm was monitored for 3 minutes and the slope of the straight line obtained by linear regression provided the activity in terms of ΔOD/min using SOFTMAX® software. Blank reaction was subtracted.\nConversion of ΔOD/min into Enzyme Activity was Performed as Follows: Unit enzyme/gram tissue=OD/min*0.25/10.54*4*1000/30*11\nThe same procedure was performed as with brain homogenate using 50 μl of ¼ hemolysate/DTNB mixture.\nEnzyme activity in the blood was calculated in units/1 ml whole blood.\nAChE activity was calculated as follows: AChE activity=ΔOD/min (determined with ATC)−ΔOD/min (determined with BTC)/0.7\n0.7=BChE activity on BTC/BChE activity on ATC. It was determined by using 1.25-10^−6M BW281C51 to inhibit AChE and with ATC and BTC as substrates."}, "[4]": {"settings": "sub-optimal dose from one week before MOG immunization, vs saline vehicle"}, "[5]": {"settings": "51 and 70.1 mg/kg/day, doses effective in ameliorating EAE"}}, "note": "Marks after values point to notes of the source that are not given here.", "data": [{"smiles": "C#CCN[C@@H]1CCc2ccc(OC(=O)N(C)CC)cc21", "note": "[Ladostigil, R(+)-6-(N-methyl,N-ethyl-carbamoyloxy)-N′-propargyl-1-aminoindan]", "values": [{"measurement": "Weight of EAE mice", "setting": "[1]; day 2 after induction, ladostigil salt 10.2 mg/kg gavage daily", "result": "18.1 ± 1.0", "unit": "g"}, {"measurement": "Weight of EAE mice", "setting": "[1]; day 2 after induction, ladostigil salt 25.5 mg/kg gavage daily", "result": "18.2 ± 0.8", "unit": "g"}, {"measurement": "Weight of EAE mice", "setting": "[1]; day 2 after induction, ladostigil salt 51 mg/kg gavage daily", "result": "18.2 ± 0.9", "unit": "g"}, {"measurement": "Weight of EAE mice", "setting": "[1]; day 2 after induction, ladostigil salt 70.1 mg/kg gavage daily", "result": "18.5 ± 0.8", "unit": "g"}, {"measurement": "Weight of EAE mice", "setting": "[1]; day 14 after induction, ladostigil salt 10.2 mg/kg gavage daily", "result": "16.0 ± 1.7", "unit": "g"}, {"measurement": "Weight of EAE mice", "setting": "[1]; day 14 after induction, ladostigil salt 25.5 mg/kg gavage daily", "result": "15.9 ± 1.7", "unit": "g"}, {"measurement": "Weight of EAE mice", "setting": "[1]; day 14 after induction, ladostigil salt 51 mg/kg gavage daily", "result": "15.6 ± 1.6", "unit": "g"}, {"measurement": "Weight of EAE mice", "setting": "[1]; day 14 after induction, ladostigil salt 70.1 mg/kg gavage daily", "result": "15.9 ± 1.4", "unit": "g"}, {"measurement": "Weight of EAE mice", "setting": "[1]; day 30 after induction, ladostigil salt 10.2 mg/kg gavage daily", "result": "17.6 ± 2.5", "unit": "g"}, {"measurement": "Weight of EAE mice", "setting": "[1]; day 30 after induction, ladostigil salt 25.5 mg/kg gavage daily", "result": "17.8 ± 1.4", "unit": "g"}, {"measurement": "Weight of EAE mice", "setting": "[1]; day 42 after induction, ladostigil salt 10.2 mg/kg gavage daily", "result": "17.5 ± 2.9", "unit": "g"}, {"measurement": "Weight of EAE mice", "setting": "[1]; day 42 after induction, ladostigil salt 25.5 mg/kg gavage daily", "result": "17.6 ± 1.7", "unit": "g"}, {"measurement": "Weight compared with positive control", "setting": "[1]; highest dose of ladostigil, day 30", "result": "comparable with the positive control"}, {"measurement": "incidence and severity of EAE", "setting": "[2]; compared to control", "result": "decreases both the incidence and severity of EAE"}, {"measurement": "area under the curve (clinical score)", "setting": "[2]; [4]", "result": "smaller area under the curve"}, {"measurement": "clinical score", "setting": "[2]; [4]", "result": "lower clinical score"}, {"measurement": "inhibition of AChE in blood", "setting": "[3]; [5]", "result": "60-65%"}, {"measurement": "inhibition of AChE in brain", "setting": "[3]; [5]", "result": "47-52%"}, {"measurement": "Blood AChE U/ml", "setting": "[3]; 10.2 mg/kg salt", "result": "0.85 +/− 0.17 U/ml"}, {"measurement": "Blood AchE % inhibition", "setting": "[3]; 10.2 mg/kg salt", "result": "37.4* %"}, {"measurement": "Blood AChE U/ml", "setting": "[3]; 25.5 mg/kg salt", "result": "0.73 +/− 0.12 U/ml"}, {"measurement": "Blood AchE % inhibition", "setting": "[3]; 25.5 mg/kg salt", "result": "46.3* %"}, {"measurement": "Blood AChE U/ml", "setting": "[3]; 51 mg/kg salt", "result": "0.54 +/− 0.1 U/ml"}, {"measurement": "Blood AchE % inhibition", "setting": "[3]; 51 mg/kg salt", "result": "60.2* %"}, {"measurement": "Blood AChE U/ml", "setting": "[3]; 70.1 mg/kg salt", "result": "0.48 +/− 0.1 U/ml"}, {"measurement": "Blood AchE % inhibition", "setting": "[3]; 70.1 mg/kg salt", "result": "64.9* %"}, {"measurement": "Brain AChE U/g (Total ChE)", "setting": "[3]; 10.2 mg/kg salt", "result": "8.77 +/− 1.23 U/g"}, {"measurement": "Brain AchE % inhibition", "setting": "[3]; 10.2 mg/kg salt", "result": 13.4, "unit": "%"}, {"measurement": "Brain AChE U/g (Total ChE)", "setting": "[3]; 25.5 mg/kg salt", "result": "7.42 +/− 1.29 U/g"}, {"measurement": "Brain AchE % inhibition", "setting": "[3]; 25.5 mg/kg salt", "result": "26.8* %"}, {"measurement": "Brain AChE U/g (Total ChE)", "setting": "[3]; 51 mg/kg salt", "result": "5.41 +/− 0.6 U/g"}, {"measurement": "Brain AchE % inhibition", "setting": "[3]; 51 mg/kg salt", "result": "46.6* %"}, {"measurement": "Brain AChE U/g (Total ChE)", "setting": "[3]; 70.1 mg/kg salt", "result": "4.85 +/− 0.65 U/g"}, {"measurement": "Brain AchE % inhibition", "setting": "[3]; 70.1 mg/kg salt", "result": "52.2* %"}]}]}
